Data as given in paper PMC9721025, “Pharmacokinetic study of the main components of Tanreqing capsules and Tanreqing injections in beagles by liquid chromatography–tandem mass spectrometry” (Chinese Medicine, 2022).
Read-outs that look alike come from different tables or passages of the source.

Columns and labels:
[1] = Pharmacokinetics in beagles, multiple-dose regimen (once per day for 7 days) of TRQI or TRQC, plasma LC-MS/MS; type: in vivo; conditions: beagle, dog
Experimental: (§1) 100 μL plasma sample was drawn and transferred to 1.5 mL centrifuge tube prior to 300 μL protein precipitant (3:1 [v/v] methanol/acetonitrile, containing 0.1% formic acid and 100 ng/mL IS) was added, and then the sample was vortex-mixed for 3 min. The mixture was centrifuged at 20,000 ×g for 10 min, and 100 μL supernatant was transferred to the injection vial and analyzed directly by LC–MS/MS.
(§2) This study was carried out in six beagles (three males and three females, 9.0–12.0 kg each), that were purchased from Junda Pet Hospital (Shanghai, China). This experimental protocol was approved by the Experimental Animal Ethics Committee of the Naval Military Medical University (Shanghai, China).
After the end of the single-dose experiment, the dogs in group one were given 0.5 mL/kg injection of TRQI once per day for 7 days following the wash out period, and the dogs in group two were given 0.09 g/kg TRQC once per day for 7 days. After the seventh administration, blood samples were collected at 0, 10, 20, and 40 min and then at 1, 1.5, 2, 2.5, 3, 4, 6, 8, 12, and 24 h (a total of 14 time points) and were processed as described in “Single-dose regimen” section. The resulting plasma samples were used to determine the steady-state plasma concentration of TRQI and TRQC. A crossover study was again carried out in both groups, as described in “Single-dose regimen” section, after a 7-day washing period.
(§3) All data obtained were analyzed using Drug and Statistics (DAS) 2.0 software (Chinese Society of Pharmacology), and a non-compartment analysis was used to calculate plasma pharmacokinetic parameters. The principal components of TRQI and TRQC were compared with an analysis of variance (ANOVA) and/or a two-tailed student-t test.

[2] = Tanreqing injection, cited from earlier work
[3] = Stability of analytes in dog plasma (QC samples); type: in vitro ADME
Experimental: The stock solutions of all analytes were further mixed and diluted with methanol/water (10:90, v/v) solution to prepare the working solutions. […] The QC samples were stored in a refrigerator at – 80 °C until retrieval (see Additional file 1). The stability, which includes short-term stability (6 h at room temperature), long-term stability (− 80 °C for 30 days in the refrigerator), and freeze–thaw stability (three cycles from − 80 °C to room temperature), were assessed using QC samples at three concentration levels in three replicates. […] Similarly, there were no obvious effects on the analysis results of the samples with respect to short-term stability or long-term storage.

[4] = Pharmacokinetics in beagles, single-dose regimen of TRQI (i.v.) or TRQC (oral), plasma LC-MS/MS; type: in vivo, beagle; conditions: for AUC(0-t) / Cmax / Tmax / half-life: beagle, dog, plasma; for AUC(0-t): read-out: AUC0–24 h; for Cmax / Tmax / half-life: mean of six beagles
Experimental: as §1, §2
The six healthy beagles were divided into two groups: beagles 1–3 were all male and were assigned to the first group, and beagles 4–6 were all females and assigned to the second group. The two-cycle, crossover study was designed with a 7-day wash out period. For the single-administration process, the dogs in the first group were injected intravenously with 0.5 mL/kg TRQI (one-third of the normal daily dose), and blood samples were collected at 0, 5, 10, 15, 20, 30, and 45 min and then at 1, 2, 4, 6, 8, 12, and 24 h (a total of 14 time points) after injection. For each blood sample, 1 mL of blood was collected from the forelimb vein in heparin-treated tubes. The dogs in the second group were orally administrated 0.09 g/kg TRQC (one-third of the normal daily dose, and blood samples were collected in the same manner at 0, 10, 20, and 40 min and then at 1, 1.5, 2, 2.5, 3, 4, 6, 8, 12, and 24 h (a total of 14 time points). All blood samples were centrifuged at 4000 × g for 5 min, and each supernatant was collected and aliquoted. After a 7-day wash out period, the dogs in each group were administrated the other Tanreqing formulation in a crossover design, and blood samples were collected and processed in the same way.
as §3

[5] = both sexes, iv, TRQI 0.5 mL/kg once per day for 7 days, mean
[6] = both sexes, po, TRQC 0.09 g/kg once per day for 7 days, mean
[7] = n = 3, high QC: nominal 200 ng/mL baicalin, 1000 ursodeoxycholic acid, 100 chenodeoxycholic acid and chlorogenic acid
[8] = n = 3, low QC: nominal 4 ng/mL baicalin, 20 ursodeoxycholic acid, 2 chenodeoxycholic acid and chlorogenic acid
[9] = n = 3, middle QC: nominal 20 ng/mL baicalin, 100 ursodeoxycholic acid, 10 chenodeoxycholic acid and chlorogenic acid
[10] = both sexes, iv, single i.v. dose of TRQI 0.5 mL/kg
[11] = both sexes, single oral dose of TRQC 0.09 g/kg

## C[C@H](CCC(=O)O)[C@H]1CC[C@H]2[C@@H]3[C@@H](O)C[C@@H]4C[C@H](O)CC[C@]4(C)[C@H]3CC[C@]12C [Ursodeoxycholic acid, ursodeoxycholic acid]
[1]; both sexes, iv, 0.5 mL/kg, TRQI 0.5 mL/kg for 7 days, Mean
  AUC(0-inf): 19100 ng·h/mL
[1]; both sexes, iv, 0.5 mL/kg, TRQI 0.5 mL/kg for 7 days, Mean, read-out: AUC0–24 h
  AUC(0-t): 16400 ng·h/mL
[1]; [5]
  Cmax at 7 days: 5060 ng/mL
  half-life at 7 days: 6.84 h
[1]; both sexes, po, 0.09 g/kg, TRQC 0.09 g/kg for 7 days, Mean
  AUC(0-inf): 35300 ng·h/mL
[1]; both sexes, po, 0.09 g/kg, TRQC 0.09 g/kg for 7 days, Mean, read-out: AUC0–24 h
  AUC(0-t): 28500 ng·h/mL
[1]; [6]
  Cmax at 7 days: 3400 ng/mL
  Tmax at 7 days: 5.69 h
  half-life at 7 days: 12 h
[1]; female, iv, 0.5 mL/kg, TRQI 0.5 mL/kg for 7 days, beagle No. 4
  AUC(0-inf): 14900 ng·h/mL
[1]; female, iv, 0.5 mL/kg, TRQI 0.5 mL/kg for 7 days, beagle No. 4, read-out: AUC0–24 h
  AUC(0-t): 4740 ng·h/mL
[1]; female, iv, 0.5 mL/kg, TRQI 0.5 mL/kg for 7 days, beagle No. 5
  AUC(0-inf): 4220 ng·h/mL
[1]; female, iv, 0.5 mL/kg, TRQI 0.5 mL/kg for 7 days, beagle No. 5, read-out: AUC0–24 h
  AUC(0-t): 2560 ng·h/mL
[1]; female, iv, 0.5 mL/kg, TRQI 0.5 mL/kg for 7 days, beagle No. 6
  AUC(0-inf): 2810 ng·h/mL
[1]; female, iv, 0.5 mL/kg, TRQI 0.5 mL/kg for 7 days, beagle No. 6, read-out: AUC0–24 h
  AUC(0-t): 2670 ng·h/mL
[1]; female, po, 0.09 g/kg, TRQC 0.09 g/kg for 7 days, beagle No. 4
  AUC(0-inf): 112000 ng·h/mL
[1]; female, po, 0.09 g/kg, TRQC 0.09 g/kg for 7 days, beagle No. 4, read-out: AUC0–24 h
  AUC(0-t): 109000 ng·h/mL
[1]; female, po, 0.09 g/kg, TRQC 0.09 g/kg for 7 days, beagle No. 5
  AUC(0-inf): 20100 ng·h/mL
[1]; female, po, 0.09 g/kg, TRQC 0.09 g/kg for 7 days, beagle No. 5, read-out: AUC0–24 h
  AUC(0-t): 10500 ng·h/mL
[1]; female, po, 0.09 g/kg, TRQC 0.09 g/kg for 7 days, beagle No. 6
  AUC(0-inf): 45000 ng·h/mL
[1]; female, po, 0.09 g/kg, TRQC 0.09 g/kg for 7 days, beagle No. 6, read-out: AUC0–24 h
  AUC(0-t): 17600 ng·h/mL
[1]; male, iv, 0.5 mL/kg, TRQI 0.5 mL/kg for 7 days, beagle No. 1
  AUC(0-inf): 75900 ng·h/mL
[1]; male, iv, 0.5 mL/kg, TRQI 0.5 mL/kg for 7 days, beagle No. 1, read-out: AUC0–24 h
  AUC(0-t): 72400 ng·h/mL
[1]; male, iv, 0.5 mL/kg, TRQI 0.5 mL/kg for 7 days, beagle No. 2
  AUC(0-inf): 1860 ng·h/mL
[1]; male, iv, 0.5 mL/kg, TRQI 0.5 mL/kg for 7 days, beagle No. 2, read-out: AUC0–24 h
  AUC(0-t): 1720 ng·h/mL
[1]; male, iv, 0.5 mL/kg, TRQI 0.5 mL/kg for 7 days, beagle No. 3
  AUC(0-inf): 14600 ng·h/mL
[1]; male, iv, 0.5 mL/kg, TRQI 0.5 mL/kg for 7 days, beagle No. 3, read-out: AUC0–24 h
  AUC(0-t): 14500 ng·h/mL
[1]; male, po, 0.09 g/kg, TRQC 0.09 g/kg for 7 days, beagle No. 1
  AUC(0-inf): 2940 ng·h/mL
[1]; male, po, 0.09 g/kg, TRQC 0.09 g/kg for 7 days, beagle No. 1, read-out: AUC0–24 h
  AUC(0-t): 2760 ng·h/mL
[1]; male, po, 0.09 g/kg, TRQC 0.09 g/kg for 7 days, beagle No. 2
  AUC(0-inf): 24400 ng·h/mL
[1]; male, po, 0.09 g/kg, TRQC 0.09 g/kg for 7 days, beagle No. 2, read-out: AUC0–24 h
  AUC(0-t): 23900 ng·h/mL
[1]; male, po, 0.09 g/kg, TRQC 0.09 g/kg for 7 days, beagle No. 3
  AUC(0-inf): 7520 ng·h/mL
[1]; male, po, 0.09 g/kg, TRQC 0.09 g/kg for 7 days, beagle No. 3, read-out: AUC0–24 h
  AUC(0-t): 7190 ng·h/mL
[2]; Hu's study
  t1/2: 0.933 h
[2]; another study
  t1/2: 0.233 h
[3]; [7]
  Freeze-thaw stability (3 cycles) Mean ± S.D. concentration: 1048.41 ± 75.10 ng/mL
  Long-term stability (30 days at – 80 °C) Mean ± S.D. concentration: 1081.75 ± 20.70 ng/mL
  Short-term stability (6 h at room temperature) Mean ± S.D concentration: 1104.46 ± 16.75 ng/mL
[3]; [8]
  Freeze-thaw stability (3 cycles) Mean ± S.D. concentration: 18.47 ± 1.66 ng/mL
  Long-term stability (30 days at – 80 °C) Mean ± S.D. concentration: 18.77 ± 0.41 ng/mL
  Short-term stability (6 h at room temperature) Mean ± S.D concentration: 19.38 ± 0.97 ng/mL
[3]; [9]
  Freeze-thaw stability (3 cycles) Mean ± S.D. concentration: 87.08 ± 1.95 ng/mL
  Long-term stability (30 days at – 80 °C) Mean ± S.D. concentration: 90.80 ± 1.57 ng/mL
  Short-term stability (6 h at room temperature) Mean ± S.D concentration: 97.83 ± 0.62 ng/mL
[4]; TRQC, oral, dogs
  time at which oral absorption reached a peak: ~5 h
[4]; both sexes, iv, 0.5 mL/kg, single TRQI 0.5 mL/kg, Mean
  AUC(0-t): 4080 ng·h/mL
[4]; [10]
  Cmax: 2750 ng/mL
  Tmax: 0.08 h
  half-life: 27.7 h
[4]; both sexes, po, 0.09 g/kg, single TRQCs 0.09 g/kg, Mean
  AUC(0-t): 4400 ng·h/mL
[4]; [11]
  Cmax: 1330 ng/mL
  Tmax: 5.94 h
  half-life: 10.4 h
[4]; female, iv, 0.5 mL/kg, single TRQI 0.5 mL/kg, beagle No 4
  AUC(0-t): 898 ng·h/mL
[4]; female, iv, 0.5 mL/kg, single TRQI 0.5 mL/kg, beagle No 5
  AUC(0-t): 1160 ng·h/mL
[4]; female, iv, 0.5 mL/kg, single TRQI 0.5 mL/kg, beagle No 6
  AUC(0-t): 992 ng·h/mL
[4]; female, po, 0.09 g/kg, single TRQCs 0.09 g/kg, beagle No 4
  AUC(0-t): 11300 ng·h/mL
[4]; female, po, 0.09 g/kg, single TRQCs 0.09 g/kg, beagle No 5
  AUC(0-t): 1880 ng·h/mL
[4]; female, po, 0.09 g/kg, single TRQCs 0.09 g/kg, beagle No 6
  AUC(0-t): 3700 ng·h/mL
[4]; male, iv, 0.5 mL/kg, single TRQI 0.5 mL/kg, beagle No 1
  AUC(0-t): 18200 ng·h/mL
[4]; male, iv, 0.5 mL/kg, single TRQI 0.5 mL/kg, beagle No 2
  AUC(0-t): 1100 ng·h/mL
[4]; male, iv, 0.5 mL/kg, single TRQI 0.5 mL/kg, beagle No 3
  AUC(0-t): 2120 ng·h/mL
[4]; male, po, 0.09 g/kg, single TRQCs 0.09 g/kg, beagle No 1
  AUC(0-t): 1700 ng·h/mL
[4]; male, po, 0.09 g/kg, single TRQCs 0.09 g/kg, beagle No 2
  AUC(0-t): 3190 ng·h/mL
[4]; male, po, 0.09 g/kg, single TRQCs 0.09 g/kg, beagle No 3
  AUC(0-t): 4590 ng·h/mL
